Results reported in article PMC1310925, “Organotins Disrupt the 11β-Hydroxysteroid Dehydrogenase Type 2–Dependent Local Inactivation of Glucocorticoids” (Environmental Health Perspectives, 2005).

Experiments:
11β-HSD2 [1] = target: T1, 11β-HSD2 (Homo sapiens, UniProt P80365); assay: 11β-HSD2 activity in lysates of stably transfected HEK-293 cells (cortisol to cortisone); format: biochemical; design: expressed in transfected cells; host or cells: HEK-293, stably transfected; conditions: for IC50: 40 nM cortisol, 400 μM NAD+, 10 min 37°C, read-out: IC50 11β-HSD2, cell lysate
T1 sequence (P80365 1-405): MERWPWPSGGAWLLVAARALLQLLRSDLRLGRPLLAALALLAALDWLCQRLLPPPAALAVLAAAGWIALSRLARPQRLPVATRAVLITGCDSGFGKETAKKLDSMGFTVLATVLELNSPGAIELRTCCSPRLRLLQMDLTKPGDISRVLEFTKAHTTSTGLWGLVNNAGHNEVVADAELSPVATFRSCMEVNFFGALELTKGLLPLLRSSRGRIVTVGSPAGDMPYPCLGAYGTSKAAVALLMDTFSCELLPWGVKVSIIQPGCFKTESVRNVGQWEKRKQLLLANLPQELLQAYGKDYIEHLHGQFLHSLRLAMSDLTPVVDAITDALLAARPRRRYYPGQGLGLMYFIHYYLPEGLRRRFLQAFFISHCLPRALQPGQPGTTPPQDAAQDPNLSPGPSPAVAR
Protocol: Cells were rinsed 3 times with phosphate-buffered saline (PBS) and resuspended in 2 mL ice-cold buffer TS2 (100 mM NaCl, 1 mM EGTA, 1 mM EDTA, 1 mM MgCl2, 250 mM sucrose, 20 mM Tris-HCl, pH 7.4). Aliquots of the cell suspension were frozen at −20°C, retaining full enzymatic activity for at least 3 months. For determinationof 11β-HSD2 activity, aliquots were thawed, sonicated, and diluted 1:12 in buffer TS2 (4°C). We carried out reactions in a final volume of 20 μL containing 10 nCi [1,2,6,7-^3H]-cortisol, 400-μM NAD^+, and different concentrations of unlabeled cortisol. […] Incubations were for 10 min at 37°C.

11β-HSD2 [2] = target: T1, 11β-HSD2; assay: 11β-HSD2 activity in intact stably transfected HEK-293 cells; format: cell-based; design: expressed in transfected cells; host or cells: HEK-293, stably transfected; conditions: for IC50: HEK-293 stably transfected, 40 nM cortisol, 2 hr; for 11β-HSD2 activity in intact cells, compound alone: concentrations 50% below their IC50 value
Protocol: HEK-293 cells stably transfected with 11β-HSD2 (25,000 cells per well) were seeded 24 hr prior to the assay in poly-D-lysine coated 96-well Biocoat plates (Becton Dickinson, Basel, Switzerland). The medium was carefully removed, followed by the addition of 30 μL fresh medium, 10 μL medium containing various concentrations of organotins, and 10 μL radiolabeled cortisol. The reaction volume was 50 μL, with a final cortisol concentration of 40 nM. The cells were incubated for 2 hr at 37°C under 5% CO2. We stopped reactions by adding an excess of unlabeled cortisone and cortisol in methanol, and separated steroids using thin-layer chromatography, followed by scintillation counting.

| SMILES | effect on 11β-HSD2 enzymatic activity (11β-HSD2 [1]; DTT alone, lysate) | IC50 (11β-HSD2 [1]) [µM] | IC50 (11β-HSD2 [2]) [µM] | 11β-HSD2 activity in intact cells, compound alone (11β-HSD2 [2]) |
| --- | --- | --- | --- | --- |
| O[C@@H](CS)[C@@H](O)CS (racemic) [DTT, dithiothreitol, reference compound] | did not significantly alter enzymatic activity |  |  |  |
| CCC[CH2][Sn][CH2]CCC [DBT, dibutyltin] |  | 1.95 ± 0.27 | 5.03 ± 0.7 | reduced 11β-HSD2 activity only slightly |
| c1cc[c]([Sn][c]2ccccc2)cc1 [DPT, diphenyltin] |  | 1.42 ± 0.17 | 2.89 ± 0.59 | reduced 11β-HSD2 activity only slightly |
